Literature values as cited in patent US20230338329A1, “C[…] COMPOSITION AND METHOD OF MANUFACTURING” (priority 2022, published 2023).

Conditions: hydrophilic-lipophilic balance value

| Compound | HLB |
| --- | --- |
| CCCCCCCCCCCCOS(=O)(=O)[O-].[Na+] [sodium lauryl sulfate] | 40 |
| Sorbitan monooleate [Span 80] | 4.9 |
| alkyl phenyl polyoxyethylene ether | 14.5 |
| polyoxyethylene sorbitan monooleate | 15 |
